From patent US9241492B2, “Bioactive acid agrichemical compositions and use thereof” (Sciessent LLC, priority 2007, dated 2016)

System: E. amylovora 153N
Test: Fire blight on Snow Drift crabapple trees (Example 311)
Assay type: in vivo
Conditions: rate 5 lbs/a (2.27 kg/a)
Description: A study of the bioefficacy of the various agrichemical compositions, including bioactive acid solutions and blends thereof with an antibiotic agrichemical, were evaluated to assess their bioefficacy against fire blight on crabapples. The study was conducted on 5 year old Snow Drift crabapple trees, with each of the compositions being applied to ten trees in two-subplots of five trees, four different times: at 100% bloom—day 1, a second application was made on day 4, a third on day 11 and a final treatment on day 19. The trees were inoculated with E. amylovora 153N at a concentration of 4×10^6 cells per milliliter on day 1, following drying of the treatment, with the inoculation being repeated on day 13. Evaluation for fire blight was completed on 100 blossoms for each of the subplots on day 12, day 19 and day 27. Additionally, the incidence of shoot infection and the length of cankers were evaluated on day 63.
The test compositions were prepared by forming solutions of the bioactive agents. Two different dilutions of the MI2 bioactive were evaluated, the first employing 94.46 ml/gallon (25 ml/l) of water (5 ppm of each metal) and the second 188.9 ml/gallon (50 ml/l) of water (10 ppm of each metal). A streptomycin product (17% concentrated) was diluted at a rate of 0.049 lbs/gallon ([…]) (200 ppm). Finally, copper hydroxide was diluted at a rate of 1 lb/gallon (119.8 g/l). Each of the compositions and blends were spray applied at a rate of 50 gallons (189.3 l) pre acre. The results are presented as the mean of the counts.

For [Cu+2].[OH-].[OH-] [copper hydroxide], the “Blossom Incidence Day 12” value (day 12, mean of counts per 100 blossoms) was 3.1, the “Blossom Incidence Day 19” value (day 19) was 2.2 and the “Blossom Incidence Day 27” value (day 27) was 9.0. The “Canker Size Day 63” value (day 63) was 0.0 cm and the “Shoot Incidence Day 63” value (day 63) was 1.0.
